Like-named read-outs stand apart in the source and are kept apart here.
Columns and labels:
Test in all cases: Postemergent activity
Format in all cases: in vivo
Cheatgrass = system: Cheatgrass
Method: (§1) Representative compositions of the present invention were evaluated for the postemergence control of species of plants listed in Table A. In these evaluations, pots of the plant species listed in Table A, grown to a height of about 10 cms, were used. […] The spray compositions were made by mixing the active ingredient in acetone to 1/2 the final volume, i.e., twice the final concentration. An equal amount of water was added to the active ingredient/acetone mixture wherein the water contained 0.1 percent by weight of TWEEN® 200 surfactant. The application to the plants was made to the point of run-off and was carried out with conventional spraying equipment. […] Thereafter, the pots were maintained under conditions conducive for plant growth.

Green Foxtail = system: Green Foxtail
Method: as §1

Barley = system: Barley
Method: as §1

Blackgrass = system: Blackgrass
Method: as §1

Yellow Foxtail = system: Yellow Foxtail
Method: as §1

Wild Oats = details: Avena fatua, post-emergence, 336 h
How it was run: (§2)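 Pots of plants about 10 cm tall sprayed to run-off at 125, 62.5, 31.25, 15.6, 7.8 and 3.9 ppm. Spray: active in acetone mixed with an equal volume of water containing 0.1% TWEEN 200. Growth scored two weeks later on a 0–100 scale (0 no effect, 100 complete kill).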

Wheat = details: Triticum aestivum, post-emergence, 336 h, read-out: % Control
How it was run: as §2

**Q.** With `COC(=O)C(C)Oc1ccc(Oc2ccc(Cl)cc2F)cc1` (racemic) [Example 4-Chloro-, 2-[4-(4-chloro-2-fluorophenoxy)phenoxy]propionic acid methyl ester] as the compound, how does the “% Control” value (Cheatgrass; 1.56 ppm) read?
**A.** 0%

**Q.** What about the “% Control” value (Cheatgrass; 3.1 ppm) of the same compound?
**A.** 0%

**Q.** What about the “% Control” value (Cheatgrass; 6.3 ppm) of the same compound?
**A.** 0%

**Q.** What about the “% Control” value (Cheatgrass; 12.5 ppm) of the same compound?
**A.** 0%

**Q.** And the “% Control” value (Cheatgrass; 25 ppm)?
**A.** 0%

**Q.** And the “% Control” value (Cheatgrass; 50 ppm)?
**A.** 10%

**Q.** What about the “% Control” value (Cheatgrass; 100 ppm) of the same compound?
**A.** 40%

**Q.** And the “% Control” value (Green Foxtail; 1.56 ppm)?
**A.** 95%

**Q.** What about the “% Control” value (Green Foxtail; 3.1 ppm) of the same compound?
**A.** 100%

**Q.** What about the “% Control” value (Green Foxtail; 6.3 ppm) of the same compound?
**A.** 100%

**Q.** What about the “% Control” value (Green Foxtail; 12.5 ppm) of the same compound?
**A.** 100%

**Q.** What about the “% Control” value (Green Foxtail; 25 ppm) of the same compound?
**A.** 100%

**Q.** And the “% Control” value (Green Foxtail; 50 ppm)?
**A.** 100%

**Q.** What about the “% Control” value (Green Foxtail; 100 ppm) of the same compound?
**A.** 100%

**Q.** What about the “% Control” value (Barley; 15.6 ppm) of the same compound?
**A.** 0%

**Q.** What about the “% Control” value (Barley; 31.25 ppm) of the same compound?
**A.** 0%

**Q.** And the “% Control” value (Barley; 62.5 ppm)?
**A.** 0%

**Q.** And the “% Control” value (Barley; 125 ppm)?
**A.** 0%

**Q.** And the “% Control” value (Barley; 250 ppm)?
**A.** 0%

**Q.** And the “% Control” value (Barley; 500 ppm)?
**A.** 50%

**Q.** What about the “% Control” value (Blackgrass; 1.56 ppm) of the same compound?
**A.** 50%

**Q.** And the “% Control” value (Blackgrass; 3.1 ppm)?
**A.** 50%

**Q.** And the “% Control” value (Blackgrass; 6.3 ppm)?
**A.** 100%

**Q.** And the “% Control” value (Blackgrass; 12.5 ppm)?
**A.** 100%

**Q.** And the “% Control” value (Blackgrass; 25 ppm)?
**A.** 99%

**Q.** What about the “% Control” value (Blackgrass; 50 ppm) of the same compound?
**A.** 100%

**Q.** And the “% Control” value (Blackgrass; 100 ppm)?
**A.** 100%

**Q.** What about the “% Control” value (Yellow Foxtail; 1.56 ppm) of the same compound?
**A.** 50%

**Q.** And the “% Control” value (Yellow Foxtail; 3.1 ppm)?
**A.** 80%

**Q.** What about the “% Control” value (Yellow Foxtail; 6.3 ppm) of the same compound?
**A.** 100%

**Q.** What about the “% Control” value (Yellow Foxtail; 12.5 ppm) of the same compound?
**A.** 100%

**Q.** And the “% Control” value (Yellow Foxtail; 25 ppm)?
**A.** 100%

**Q.** And the “% Control” value (Yellow Foxtail; 50 ppm)?
**A.** 100%

**Q.** And the “% Control” value (Yellow Foxtail; 100 ppm)?
**A.** 100%

**Q.** And the pest or weed control at 15.6 ppm (Wild Oats; read-out: % Control)?
**A.** 40%

**Q.** And the pest or weed control at 31.25 ppm (Wild Oats; read-out: % Control)?
**A.** 100%

**Q.** And the pest or weed control at 62.5 ppm (Wild Oats; read-out: % Control)?
**A.** 95%

**Q.** And the pest or weed control at 125 ppm (Wild Oats; read-out: % Control)?
**A.** 90%

**Q.** What about the pest or weed control at 250 ppm (Wild Oats; read-out: % Control) of the same compound?
**A.** 100%

**Q.** And the pest or weed control at 500 ppm (Wild Oats; read-out: % Control)?
**A.** 100%

**Q.** And the plant injury at 15.6 ppm (Wheat)?
**A.** 0%

**Q.** What about the plant injury at 31.25 ppm (Wheat) of the same compound?
**A.** 0%

**Q.** And the plant injury at 62.5 ppm (Wheat)?
**A.** 0%

**Q.** What about the plant injury at 125 ppm (Wheat) of the same compound?
**A.** 0%

**Q.** And the plant injury at 250 ppm (Wheat)?
**A.** 0%

**Q.** And the plant injury at 500 ppm (Wheat)?
**A.** 40%

**Q.** For `COC(=O)C(C)Oc1ccc(Oc2ccc(C(F)(F)F)cc2F)cc1` (stereo not shown) [2-[4-(2-fluoro-4-trifluoromethylphenoxy)phenoxy]propionic acid methyl ester], which “% Control” value (Yellow Foxtail; 3.9 ppm) is on record?
**A.** 35%

**Q.** And the “% Control” value (Yellow Foxtail; 7.8 ppm)?
**A.** 100%

**Q.** What about the “% Control” value (Yellow Foxtail; 15.6 ppm) of the same compound?
**A.** 100%

**Q.** What about the “% Control” value (Yellow Foxtail; 31.25 ppm) of the same compound?
**A.** 100%

**Q.** What about the “% Control” value (Yellow Foxtail; 62.5 ppm) of the same compound?
**A.** 100%

**Q.** And the “% Control” value (Yellow Foxtail; 125 ppm)?
**A.** 100%

**Q.** And the pest or weed control at 3.9 ppm (Wild Oats; 3.9 ppm)?
**A.** 0%

**Q.** And the pest or weed control at 7.8 ppm (Wild Oats; 7.8 ppm, read-out: % Control)?
**A.** 0%

**Q.** What about the pest or weed control at 15.6 ppm (Wild Oats; 15.6 ppm, read-out: % Control) of the same compound?
**A.** 60%

**Q.** What about the pest or weed control at 31.25 ppm (Wild Oats; 31.25 ppm, read-out: % Control) of the same compound?
**A.** 100%

**Q.** And the pest or weed control at 62.5 ppm (Wild Oats; 62.5 ppm, read-out: % Control)?
**A.** 100%

**Q.** What about the pest or weed control at 125 ppm (Wild Oats; 125 ppm, read-out: % Control) of the same compound?
**A.** 100%

**Q.** What about the plant injury at 3.9 ppm (Wheat; 3.9 ppm) of the same compound?
**A.** 0%

**Q.** And the plant injury at 7.8 ppm (Wheat; 7.8 ppm)?
**A.** 60%

**Q.** And the plant injury at 15.6 ppm (Wheat; 15.6 ppm)?
**A.** 90%

**Q.** And the plant injury at 31.25 ppm (Wheat; 31.25 ppm)?
**A.** 100%

**Q.** And the plant injury at 62.5 ppm (Wheat; 62.5 ppm)?
**A.** 100%

**Q.** And the plant injury at 125 ppm (Wheat; 125 ppm)?
**A.** 100%
